Measured values published in the supplement of paper PMC10307832.

What was measured:
Test in all cases: relative viability (nuclei count vs DMSO), 5 days (fraction); higher = more cells survive
[1] = compound: CN(C)C[C@@H]1CCn2cc(c3ccccc32)C2=C(C(=O)NC2=O)c2cn(c3ccccc23)CCO1 [Ruboxistaurin] + Cc1nc(NC(=O)N2CCC[C@H]2C(N)=O)sc1-c1ccnc(C(C)(C)C(F)(F)F)c1 [Alpelisib] (partner 2 µM)
Summary of the method: (§1)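 Relative viability is defined as nuclei in treated wells over nuclei in vehicle wells. Duplicate plates were run and medians reported. Lung cancer cell lines in 1536-well plates were dosed by pin tool one day after seeding, with one drug or with a fixed anchor-drug dose plus five library-drug doses (not always all listed) in √10 steps, and nuclei were counted after 5 days.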

[2] = compound: CN(C)C[C@@H]1CCn2cc(c3ccccc32)C2=C(C(=O)NC2=O)c2cn(c3ccccc23)CCO1 [Ruboxistaurin] + Nc1nc2[nH]cc(CCc3ccc(C(=O)N[C@@H](CCC(=O)O)C(=O)O)cc3)c2c(=O)[nH]1 [Pemetrexed] (partner 0.2 µM)
Summary of the method: as §1

[3] = compound: CN(C)C[C@@H]1CCn2cc(c3ccccc32)C2=C(C(=O)NC2=O)c2cn(c3ccccc23)CCO1 [Ruboxistaurin] + Nc1ncn([C@H]2C[C@H](O)[C@@H](CO)O2)c(=O)n1 [Decitabine] (partner 2 µM)
Summary of the method: as §1

[4] = compound: CN(C)C[C@@H]1CCn2cc(c3ccccc32)C2=C(C(=O)NC2=O)c2cn(c3ccccc23)CCO1 [Ruboxistaurin] + O=C(CCCCCCC(=O)Nc1ccccc1)NO [Vorinostat] (partner 1 µM)
Summary of the method: as §1

Ruboxistaurin + Olaparib = compound: CN(C)C[C@@H]1CCn2cc(c3ccccc32)C2=C(C(=O)NC2=O)c2cn(c3ccccc23)CCO1 [Ruboxistaurin] + O=C(c1cc(Cc2n[nH]c(=O)c3ccccc23)ccc1F)N1CCN(C(=O)C2CC2)CC1 [Olaparib] (partner 8 µM)
Summary of the method: as §1

Cell Line | relative viability ([1]; first compound 0.08 µM) | relative viability ([1]; first compound 0.8 µM) | relative viability ([1]; first compound 2.53 µM) | relative viability ([1]; first compound 8 µM) | relative viability ([2]; first compound 0.08 µM) | relative viability ([2]; first compound 0.8 µM) | relative viability ([2]; first compound 2.53 µM) | relative viability ([2]; first compound 8 µM) | relative viability ([3]; first compound 0.08 µM) | relative viability ([3]; first compound 0.8 µM) | relative viability ([3]; first compound 2.53 µM) | relative viability ([3]; first compound 8 µM) | relative viability ([4]; first compound 0.08 µM) | relative viability ([4]; first compound 0.8 µM) | relative viability ([4]; first compound 2.53 µM) | relative viability ([4]; first compound 8 µM) | relative viability (Ruboxistaurin + Olaparib; first compound 0.08 µM) | relative viability (Ruboxistaurin + Olaparib; first compound 0.8 µM) | relative viability (Ruboxistaurin + Olaparib; first compound 2.53 µM) | relative viability (Ruboxistaurin + Olaparib; first compound 8 µM)
NCI-H838 | 1.13 | 0.903 | 0.966 | 0.852 | 0.248 | 0.222 | 0.222 | 0.225 | 0.476 | 0.445 | 0.526 | 0.583 | 0.813 | 0.665 | 0.742 | 0.734 | 0.867 | 0.751 | 0.838 | 0.641
EMC-BAC-2 | 0.75 | 0.703 | 0.733 | 0.612 | 0.419 | 0.415 | 0.384 | 0.383 | 0.968 | 0.949 | 0.979 | 0.842 | 0.53 | 0.461 | 0.523 | 0.384 | 0.509 | 0.453 | 0.463 | 0.481
LU99A | 0.552 | 0.48 | 0.45 | 0.297 | 0.159 | 0.179 | 0.171 | 0.203 | 0.861 | 0.762 | 1.01 | 0.773 | 0.497 | 0.442 | 0.433 | 0.416 | 0.27 | 0.259 | 0.253 | 0.218
PC-3 [JPC-3] | 1.02 | 0.956 | 1.01 | 0.976 | 1.22 | 1.09 | 1.17 | 1.04 | 0.897 | 0.814 | 0.922 | 0.838 | 0.895 | 0.917 | 0.839 | 0.837 | 1.24 | 1.09 | 1.08 | 1.17
NCI-H596 | 0.494 | 0.461 | 0.502 | 0.414 | 0.542 | 0.473 | 0.478 | 0.444 | 0.978 | 0.892 | 0.987 | 0.973 | 0.817 | 0.428 | 0.578 | 0.576 | 0.545 | 0.59 | 0.692 | 0.659
LCLC-97TM1 | 0.245 | – | 0.223 | 0.204 | 0.193 | 0.172 | 0.198 | 0.16 | 0.179 | 0.191 | 0.278 | 0.231 | 0.683 | 0.691 | 0.74 | 0.613 | 0.355 | 0.334 | 0.352 | 0.341
NCI-H1993 | 0.615 | 0.664 | 0.664 | 0.628 | 0.482 | 0.565 | 0.633 | 0.577 | 0.579 | 0.559 | 0.582 | 0.522 | 0.856 | 0.711 | 0.727 | 0.542 | 1.01 | 0.959 | 1.19 | 0.538
HARA | 1.05 | 0.797 | 0.914 | 0.481 | 0.262 | 0.297 | 0.236 | 0.248 | 0.502 | 0.496 | 0.567 | 0.592 | 0.724 | 0.494 | 0.535 | 0.546 | 1.01 | 0.895 | 0.819 | 0.538
